Assay results: US8580512B2, “Yeast-based methods of identifying nucleic acids and compounds for treating neurodegenerative diseases” (University of Alabama, priority 2008, dated 2013)

How the values were obtained:
S. pombe cells [1] = assay: Reversal of rotenone-induced proliferation inhibition; format: cell-based, Schizosaccharomyces pombe
Protocol: Phosphatidylethanolamine (PE) deficiency results in a rotenone-sensitive phenotype that can be suppressed by ethanolamine. Log phase cultures were suspended at 10^7 cells/ml, serially diluted (1:10), and spotted (5 μl per spot) onto YES (Control) or YES containing 16 μM rotenone (+Rotenone).
Oxidative stress has been detected in the brains of deceased Parkinson's disease patients, and in rats exposed to rotenone as a model for Parkinson's disease.

S. pombe cells [2] = assay: Rotenone sensitivity assay (serial dilution spot growth on agar media); format: cell-based, Schizosaccharomyces pombe; conditions: for sensitivity of growth to rotenone: 16 μM rotenone; for sensitivity of growth to rotenone relative to wild type: rotenone 6.4 μg/ml; for inhibition of S. pombe growth: wild type
Protocol: Yeast strains, media, and genetic methods. The following S. pombe strains were used in this study: SP870 (h90 ade6-210 leu1-32 ura4-D18), SPSPC1 U90 (h90 ade6-210 leu1-32 ura4-D18 spc1::ura4), SPM1L (h90 leu1-32 ura4-D18 spm1::LEU2). S. pombe cultures were grown in either YES medium (0.5% yeast extract; 3% dextrose; and adenine, histidine, leucine, lysine and uracil, each at 250 mg/L) or Edinburgh minimal medium (EMM) containing required auxotrophic supplements (Alfa et al., (1993) Experiments with fission yeast: A laboratory course manual, Cold Spring Harbor Laboratory Press, Cold Spring Harbor, N.Y., incorporated herein by reference in its entirety). Agar media contained 2% Bacto agar (Difco).
Rotenone sensitivity assay. Rotenone stock solutions (10 mM in DMSO) were prepared just prior to carrying out each experiment and protected from light. Rotenone containing YES and EMM agar media were prepared by mixing rotenone stock solution with growth medium as required for the desired rotenone concentration (up to 6.4 μg/ml). For agar media, rotenone stock solution was added after autoclaving and cooling of the media to approximately 45° C. DMSO was added to control media at concentrations equivalent to that in media supplemented with rotenone. Plates were incubated at room temperature for 3-12 hr prior to use. S. pombe strains were cultured overnight in YES liquid medium at 30° C. to mid-log phase, concentrated to 5×10^6 cells/ml, and serially diluted (1:5). Three μl of each dilution was spotted onto rotenone containing plates and control plates and the plates were incubated at 30° C. for 2-4 days, as indicated in relevant figure legends.
Effects of rotenone on S. pombe cell growth in nutrient-enriched and nutrient-limited conditions. To investigate the effects of rotenone on S. pombe cell growth, we prepared complex rich (YES) and synthetic defined minimal (EMM) agar media containing concentrations of rotenone ranging from 0.2 to 6.4 μg/ml. […] Since rotenone has a relatively short half-life in aqueous solutions, growth media containing the toxin were prepared freshly prior to each experiment. Mid-log phase cultures of wild type S. pombe cells were serially diluted and tested for growth on YES and EMM plates containing rotenone and on control media lacking the toxin.
To determine whether spc1Δ and/or pmk1Δ mutants are hypersensitive to rotenone, log phase cultures of the two strains and wild type S. pombe cells were serially diluted and tested for growth on YES medium containing rotenone and on control medium lacking the toxin. […] The reduced sensitivity of spc1Δ cells to rotenone was most evident after incubation of the cultures for two days (FIG. 8A), with the difference after 3 days of growth being apparent from examination of colony sizes at the end of the cell dilution series on the respective plates (FIG. 8B).

S. pombe cells [3] = assay: MitoTracker Green FM staining of mitochondrial localization; format: cell-based, Schizosaccharomyces pombe
Protocol: (§1) MitoTracker Green FM and dihydroethidium (DHE) staining of S. pombe cells. Mitochondrial localization was detected by staining S. pombe cells with MitoTracker Green FM (MTGreen) based on the protocol recommended by the manufacturer (Invitrogen). Briefly, S. pombe cells were cultured overnight in YES liquid medium at 30° C. to mid-log phase. Where indicated, rotenone stock solution was added to portions of each culture to a final concentration of 6.4 μg/ml. Equivalent volumes of DMSO were added to control cultures. Stock solutions of MTGreen (5 μM in DMSO) were prepared just prior to use. Staining was carried out by adding 10 μl of MTGreen stock solution to 1 ml of cell culture and incubating at 30° C. with shaking for 20 min. Stained cells were washed once with YES and resuspended in approximately 10 μl of YES prior to preparation of samples for microscopy. Stained cells were concentrated by centrifugation to a volume of approximately 10 μl. DHE staining was carried out as described by Huard et al., (2008) Cell Res. 18: 961-973, incorporated herein by reference in its entirety. Stained cells were visualized by epifluorescence microscopy using a Nikon 90i automated epifluorescence microscope system operated using Nikon NIS-Elements software. Images were captured using a CoolSNAP HQ2 monochrome CCD camera (Photometrics). RAW images were level-adjusted using the Adobe PhotoShop CS3 software application.
Rotenone induces disruption of mitochondrial localization in S. pombe cells. Similar to some mammalian cells, such as fibroblasts and nerve cells (Barsoum et al., (2006) EMBO J. 25: 3900-3911; Amchenkova et al., (1988) J. Cell. Biol. 107: 481-495), mitochondria in S. pombe are organized into tubular structures (Chiron et al., (2007) Methods Mol. Biol. 372: 91-105), as shown in FIG. 5A. […] Wild type S. pombe cells were cultured to mid-log phase in YES liquid medium were treated with rotenone (6.4 μg/ml) for 4 hr, stained with the fluorescent mitochondrial dye MitoTracker Green FM (MTGreen), and visualized by fluorescence microscopy. […]

S. pombe cells [4] = assay: Dihydroethidium (DHE) staining for ROS; format: cell-based, Schizosaccharomyces pombe; conditions: rotenone 6.4 μg/ml; for ROS levels (DHE): wild type
Protocol: as §1
Rotenone induces generation of ROS in S. pombe cells. Since rotenone induces generation of ROS in mammalian cell cultures and oxidative stress damage in the brains of rats chronically treated with the toxin (Li et al., (2003) J. Biol. Chem. 278: 8516-8525; Greenamyre et al., (2003) Parkinsonism Relat. Disord. 9 (Suppl 2): S59-64), it was determined whether rotenone also induces generation of ROS in S. pombe cells. To do this, wild type S. pombe cells were treated with rotenone and periodically analyzed the treated cells by staining with dihydroethidium (DHE), which is oxidized to ethidium in the presence of ROS (Bindokas et al., (1996) J. Neurosci. 16: 1324-1336).
Pmk1, but not Spc1, is required for normal clearance of rotenone-induced ROS in S. pombe cells. To investigate further the effects of rotenone on spc1Δ and pmk1Δ cells, we treated the two strains and wild type S. pombe cells were treated with rotenone for 12 hrs and stained cells from treated and control cultures with DHE for detection of ROS by fluorescence microscopy.

S. pombe cells [5] = conditions: 0.3 μg/ml rotenone, Heslot et al. 1970; cited from earlier work
S. pombe cells [6] = assay: DIC microscopy of cell morphology; format: cell-based, Schizosaccharomyces pombe; conditions: wild type, rotenone 6.4 μg/ml, 4 to 24 hrs
Text: To determine whether rotenone induces abnormalities in S. pombe cell morphology, rotenone-treated and untreated S. pombe cells were compared by DIC microscopy.

SMILES: O=C1O[C@H]([C@@H](O)CO)C(O)=C1O [ascorbic acid]
- reversal of rotenone-induced proliferation inhibition (S. pombe cells [1]; pka1Δ S. pombe cells): reversed
- reversal of rotenone-induced proliferation inhibition (S. pombe cells [1]; wild-type S. pombe cells, nutrient stressed conditions): reversed

SMILES: C=C(C)[C@H]1Cc2c(ccc3c2O[C@@H]2COc4cc(OC)c(OC)cc4[C@@H]2C3=O)O1 [rotenone]
- sensitivity of growth to rotenone (S. pombe cells [2]; aks1Δ mutant, complex YES medium): strongly hypersensitive
- sensitivity of growth to rotenone (S. pombe cells [2]; cgs1Δ mutant, complex YES medium): does not significantly increase the sensitivity
- sensitivity of growth to rotenone (S. pombe cells [2]; cgs1Δaks1Δ double mutant, complex YES medium): allowing the yeast to proliferate in the presence of rotenone
- sensitivity of growth to rotenone (S. pombe cells [2]; pka1Δ mutant, complex YES medium): strongly hypersensitive
- sensitivity of growth to rotenone relative to wild type (S. pombe cells [2]; pmk1Δ mutant, YES medium, 3 days): profoundly more sensitive
- sensitivity of growth to rotenone (S. pombe cells [2]; psd1Δ psd2Δ psd3Δ triple deletion, complex medium): increased sensitivity
- sensitivity of growth to rotenone relative to wild type (S. pombe cells [2]; spc1Δ mutant, YES medium, 2-3 days): slightly less sensitive
- sensitivity of growth to rotenone (S. pombe cells [2]; spc1Δ mutant, complex YES medium): not hypersensitive
- inhibition of S. pombe growth (S. pombe cells [2]; EMM minimal medium, 1.6 μg/ml rotenone, 4 days at 30° C.): slightly inhibited
- inhibition of S. pombe growth (S. pombe cells [2]; EMM minimal medium, 6.4 μg/ml rotenone, 4 days at 30° C.): strongly inhibited
- inhibition of S. pombe growth (S. pombe cells [2]; YES medium, 6.4 μg/ml rotenone, 3 days at 30° C.): modest inhibition
- inhibition of S. pombe growth (S. pombe cells [2]; YES medium, rotenone concentrations lower than 6.4 μg/ml (from 0.2 μg/ml)): not on YES containing lower concentrations
- cells with fragmentation of mitochondrial localization (S. pombe cells [3]; pmk1Δ cells, rotenone 6.4 μg/ml, 4 hr): approximately 70 % of cells
- effect on mitochondrial localization (S. pombe cells [3]; spc1Δ cells, rotenone 6.4 μg/ml, 4 hr): marginal effect
- persistence of fragmented pattern of mitochondrial localization after initial exposure (S. pombe cells [3]; wild type, continued culturing in rotenone containing medium, data not shown): at least 24 hrs
- rotenone-induced ROS levels (DHE) relative to wild type (S. pombe cells [4]; pmk1Δ cells, 12 hrs): dramatically higher
- rotenone-induced ROS levels (DHE) (S. pombe cells [4]; spc1Δ cells, 12 hrs): only a very slight increase
- ROS levels (DHE) (S. pombe cells [4]; 6 hrs): higher levels of ROS than control cells
- ROS levels (DHE) (S. pombe cells [4]; 12 hr): Higher levels of ROS
- effect on S. pombe cell growth (S. pombe cells [5]): negligible effect
- defects in S. pombe cell morphology (S. pombe cells [6]): does not induce obvious defects

SMILES: NCCO [ethanolamine]
- suppression of rotenone-sensitive phenotype (S. pombe cells [1]; psd1-3Δ (phosphatidylethanolamine deficient) strain, YES with 16 μM rotenone, 1 mM ethanolamine): suppressed
